According to PubChem BioAssay (NCI):
“And” between values parts separate entries of the source, which are not always exact repeats. Equal values may be shown once.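 These data come from cells grown in 96-well plates and exposed to compound for 48 hours at five concentrations. The concentration for 50% growth inhibition is given as GI50. TGI is the concentration that stops growth completely.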

What was measured:
Test in all cases: inhibition of tumour cell growth, NCI panel, 48 h
SK-OV-3 ovarian = test system: SK-OV-3 ovarian
IGROV1 ovarian = test system: IGROV1 ovarian
UACC-62 melanoma = test system: UACC-62 melanoma
K-562 leukemia = test system: K-562 leukemia
SF-295 CNS = test system: SF-295 CNS
786-0 renal = test system: 786-0 renal
HS 578T breast = test system: HS 578T breast
MOLT-4 leukemia = test system: MOLT-4 leukemia
A498 renal = test system: A498 renal
MDA-MB-435 = test system: MDA-MB-435

SMILES | GI50 (SK-OV-3 ovarian) | TGI (SK-OV-3 ovarian) | GI50 (IGROV1 ovarian) | TGI (IGROV1 ovarian) | GI50 (UACC-62 melanoma) | TGI (UACC-62 melanoma) | GI50 (K-562 leukemia) | TGI (K-562 leukemia) | GI50 (SF-295 CNS) | TGI (SF-295 CNS) | GI50 (786-0 renal) | TGI (786-0 renal) | GI50 (HS 578T breast) | TGI (HS 578T breast) | GI50 (MOLT-4 leukemia) | TGI (MOLT-4 leukemia) | GI50 (A498 renal) | TGI (A498 renal) | GI50 (MDA-MB-435) | TGI (MDA-MB-435)
O=[N+]([O-])c1ccc(Sc2ncnc3nc[nH]c23)c2nonc12 | 3.75 µM | 16.2 µM | 2.32 µM | 7.64 µM | 4.91 µM | 17.3 µM | 0.436 µM | 2.72 µM | 3.87 µM | 20.6 µM | 1.74 µM | 5.16 µM | 15.4 µM | 77 µM | 2.07 µM | 15.7 µM | 8.46 µM | 20.5 µM | 3.04 µM | 17.1 µM
Oc1ccc(O)c(-c2cn3ccsc3n2)c1 | 19.1 µM | 51.6 µM | 15.4 µM | 28.7 µM | 10.8 µM | 29.9 µM | 6.93 µM | 26.1 µM | 13.6 µM | 51.2 µM | 4.04 µM | 15 µM | 30.4 µM | 68.7 µM | 2.55 µM | 5.42 µM | 47 µM | 84.5 µM | 11.2 µM | 23.7 µM
C[C@H](Nc1ncnc2nc[nH]c12)c1cc2ccc(F)cc2nc1-c1ccccn1 | 48.3 µM | > 100 µM | 20.4 µM | > 100 µM | 9.29 µM | > 100 µM | > 100 µM | > 100 µM | 18.8 µM | > 100 µM | 14.3 µM | > 100 µM | 18.7 µM | > 100 µM | 52.2 µM | > 100 µM | 1.02 µM | 10.7 µM | > 100 µM | > 100 µM
COc1ccc(C(=O)COC(=O)[C@H](C[Se][Se]C[C@H](NC(=O)c2ccc(Br)cc2F)C(=O)OCC(=O)c2ccc(OC)cc2)NC(=O)c2ccc(Br)cc2F)cc1 | 0.441 µM | 1.64 µM | 0.82 µM | 2.62 µM | 1.06 µM | 2.86 µM | 3.3 µM | > 55 µM | 0.211 µM | 0.61 µM | 0.433 µM | 1.46 µM | 0.362 µM | 0.966 µM | 2.63 µM | 17.8 µM | 0.896 µM | 8.84 µM | 1.51 µM | 5.05 µM
Cn1cc(C2=C(c3cn(C)c4c([N+](=O)[O-])cccc34)C(=O)NC2=O)c2ccccc21 | > 25 µM | > 25 µM | > 25 µM | > 25 µM | > 25 µM | > 25 µM | > 25 µM | > 25 µM | > 25 µM | > 25 µM | > 25 µM | > 25 µM | > 25 µM | > 25 µM | > 25 µM | > 25 µM | > 25 µM | > 25 µM | > 25 µM | > 25 µM
Clc1ccc2c(c1)N(CCCN1CCCC1)c1ccccc1S2 | 6.22 µM | 19 µM | 7.84 µM | 23.3 µM | 10.2 µM | 25.2 µM | 2.77 µM | 7.61 µM | 6.83 µM | 21.6 µM | 5.38 µM | 19.3 µM | 4.92 µM | 30.8 µM | 4.09 µM | 15.9 µM | 2.2 µM | 10.2 µM | 1.92 µM | 4.02 µM
C[C@]12CC[C@H](O)C[C@H]1CC[C@@H]1[C@@H]2CC[C@]2(C)[C@@H](C3=CC(=O)OC3)[C@@H](O)C[C@]12O | – | 6.73 µM | – | 37.3 µM | – | 6.82 µM | – | > 52.2 µM | – | 10.9 µM | – | 2.36 µM | – | > 21.8 µM | – | 1.95 µM | – | 9.07 µM | – | 10.3 µM
CCCCCCCCCCCCCC1=NCCN1CCO | 7.04 µM | 18.3 µM | 4.46 µM | > 100 µM | 1.96 µM | 3.95 µM | 3.04 µM | > 100 µM | 2.19 µM | 6.18 µM | 5.17 µM | 11.2 µM | 2.66 µM | 6.54 µM | 4.11 µM | > 100 µM | 2.75 µM | 14.6 µM | 2.97 µM | 9.07 µM
c1cc2[nH]ncc2cc1-c1nc2ccc3[nH]ncc3c2c2c1CCCC2 | 0.781 µM | – | 0.541 µM | 7.29 µM | 0.425 µM | 3.53 µM | 0.468 µM | > 44 µM | 1.84 µM | 7.58 µM | 2.1 µM | 11.3 µM | 1.71 µM | 13.7 µM | 1.13 µM | > 20.9 µM | 0.273 µM | 1.82 µM | 0.315 µM | 3.74 µM
Cc1ccccc1-n1ncc(C(=O)c2ccccc2)c1N | > 25 µM | > 25 µM | > 25 µM | > 25 µM | > 25 µM | > 25 µM | > 25 µM | > 25 µM | > 25 µM | > 25 µM | > 25 µM | > 25 µM | > 25 µM | > 25 µM | > 25 µM | > 25 µM | > 25 µM | > 25 µM | > 25 µM | > 25 µM
C=CC(=O)NCc1cccc(Nc2ncc(Br)c(NCCCNC(=O)C3CCC3)n2)c1 | 0.9 µM | 9.84 µM | 1.17 µM and 0.732 µM | 12.5 µM and 15.8 µM | 2.3 µM and 2.9 µM | 5.23 µM and 7.37 µM | 2.99 µM and 0.937 µM | 12.5 µM and > 25 µM | 1.1 µM and 1.32 µM | 8.36 µM and 16.8 µM | 1.29 µM and 1.26 µM | 6.16 µM and > 25 µM | 0.295 µM and 0.539 µM | 1.53 µM and 1.86 µM | 1.73 µM and 2.28 µM | 12.5 µM and > 25 µM | 0.549 µM | 2.08 µM | 2.33 µM and 2.14 µM | 8.47 µM and 5.75 µM
Nc1nc(OCc2cc(Br)cs2)c2[nH]cnc2n1 | 21.1 µM | 57.8 µM | 14.5 µM | 52.1 µM | 16.3 µM | 59.7 µM | 29.7 µM | > 100 µM | 25.9 µM | > 100 µM | 22.2 µM | > 100 µM | 25.6 µM | 83.7 µM | 28.5 µM | > 100 µM | 11 µM | 48.3 µM | 29.9 µM | > 100 µM
O=CNc1ncn[nH]1 | – | > 100 µM | – | > 100 µM | – | > 100 µM | – | > 100 µM | – | > 100 µM | – | > 100 µM | – | > 100 µM | – | > 100 µM | – | > 100 µM | – | > 100 µM
